This is an account of results in patent US10941152B2, “Pyrazole compounds as modulators of FSHR and uses thereof” (TOCOPHERX, INC., priority 2014, dated 2021).

The target in test [1] is T1, FSHR (Homo sapiens, UniProt P23945).
T1 construct: expressed in transfected cells; host or cells: CHO (Cho-FSHR-LUC-1-1-43)
T1 sequence (P23945 18-695): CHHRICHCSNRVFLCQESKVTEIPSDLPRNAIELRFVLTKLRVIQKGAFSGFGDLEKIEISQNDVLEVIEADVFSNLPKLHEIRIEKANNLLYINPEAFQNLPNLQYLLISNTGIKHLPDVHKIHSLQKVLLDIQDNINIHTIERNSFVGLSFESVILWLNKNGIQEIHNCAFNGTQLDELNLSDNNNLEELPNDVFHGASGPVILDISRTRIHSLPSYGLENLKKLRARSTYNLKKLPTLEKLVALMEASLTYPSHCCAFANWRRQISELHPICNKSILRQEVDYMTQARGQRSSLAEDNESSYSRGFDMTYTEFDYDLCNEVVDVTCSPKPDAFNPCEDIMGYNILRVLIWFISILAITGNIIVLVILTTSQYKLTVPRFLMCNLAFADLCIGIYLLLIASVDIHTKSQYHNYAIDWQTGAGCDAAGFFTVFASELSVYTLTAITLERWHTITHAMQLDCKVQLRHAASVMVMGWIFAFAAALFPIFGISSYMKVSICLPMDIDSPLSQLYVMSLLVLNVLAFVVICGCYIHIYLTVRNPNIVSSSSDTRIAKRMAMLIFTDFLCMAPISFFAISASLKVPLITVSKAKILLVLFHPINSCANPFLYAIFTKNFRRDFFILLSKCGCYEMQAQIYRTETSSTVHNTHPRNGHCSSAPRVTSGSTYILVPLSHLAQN
In words: EC50 of cyclic AMP production in CHO FSHR cells + EC20 FSH (Assay A). To be noted: cyclic AMP production in CHO FSHR cells + EC20 FSH (0.265 pM), HTRF. The test is classed as cell-based. On the procedure: Example 24. EC50 of cyclic AMP production in CHO FSHR cells+EC20 FSH (Assay A)
2500 Cho-FSHR-LUC-1-1-43 cells were plated per well in 5 al of phenol red free DMEM/F12+1% FBS. Cells were plated in 384 well, solid white low volume plates (Greiner 784075) by Multidrop. Cells were assayed by adding 100 al of 2×EC20 FSH/IBMX in DMEM/F12+0.1% BSA) by Multidrop to 2 al of test compound stamped in 384 well plates (compounds are diluted 1:50). The final FSH concentration was 0.265 pM, and the final IBMX concentration was 200 μM. The compound plate map was as follows: Column 1: 2 μl of DMSO; Column 2: 2 μl of DMSO; Columns 3-12 and 13-24: 2 μl of test compound, diluted 1:4 in 100% DMSO, or 2 μl of FSH, diluted 1:4 in DMEM/F12+0.1% BSA. The starting concentration for FSH was 50 nM (final concentration was 0.5 nM). Furthermore, Column 23 contained 2 μl of EC100 FSH reference (100×) (diluted in DMEM/F12+0.1% BSA) at a final concentration of 0.5 nM, and Column 24 contained 2 μl of 1 mM AS707664/2 reference compound 2. 5 μl of compound+EC20 FSH mixture were transferred to cell plates (1:2 dilution into 5 μl of cell media) The plates were incubated at 37° C. for 1 h. 10 μl of mixed HTRF (CisBio #62AM4PEC) reagents were added per well and incubated at room temperature for 1 h. The plates were read on Envision using the cAMP HTRF—low volume 384 well protocol. The readout was the calculated fluorescence ratio (665 nm/620 nm). Values given in percent (%) indicate the percental effect (response) at a certain concentration of agonist relative to the maximum response of the FSH standard.
Background: TR-FRET usually uses a lanthanide donor and a delayed reading to cut background.

Test [2] has as its target T2, follicle-stimulating hormone (FSH) receptor (Rattus norvegicus, UniProt P20395).
T2 construct: endogenous in cells; host or cells: rat granulosa cells
T2 sequence (P20395 18-692): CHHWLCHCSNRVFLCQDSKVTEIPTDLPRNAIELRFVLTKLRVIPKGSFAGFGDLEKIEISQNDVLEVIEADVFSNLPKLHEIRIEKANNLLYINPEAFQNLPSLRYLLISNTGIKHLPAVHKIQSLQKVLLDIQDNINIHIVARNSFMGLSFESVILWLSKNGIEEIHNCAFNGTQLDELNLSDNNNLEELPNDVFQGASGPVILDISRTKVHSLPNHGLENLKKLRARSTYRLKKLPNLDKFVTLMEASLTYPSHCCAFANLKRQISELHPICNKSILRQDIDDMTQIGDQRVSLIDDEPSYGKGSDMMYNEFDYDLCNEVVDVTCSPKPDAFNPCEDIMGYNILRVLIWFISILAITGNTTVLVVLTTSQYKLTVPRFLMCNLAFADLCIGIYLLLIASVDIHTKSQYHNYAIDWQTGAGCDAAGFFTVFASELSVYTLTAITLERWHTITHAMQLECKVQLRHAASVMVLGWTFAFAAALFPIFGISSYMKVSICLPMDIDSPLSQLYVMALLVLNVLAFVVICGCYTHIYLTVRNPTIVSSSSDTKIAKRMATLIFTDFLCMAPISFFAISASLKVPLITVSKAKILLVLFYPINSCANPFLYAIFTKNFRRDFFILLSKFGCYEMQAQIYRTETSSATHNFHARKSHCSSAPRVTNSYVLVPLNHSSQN
In words: Rat granulosa EC50 FSH (Assay B). The test is classed as cell-based. The protocol: Example 25. Rat granulosa EC50 FSH (Assay B)
The assay was performed pursuant to the teaching of Yanofsky et al. (2006) Allosteric activation of the follicle-stimulating hormone (FSH) receptor by selective, nonpeptide agonists (JBC 281(19): 13226-13233, which is incorporated by reference in the disclosure of the invention).

Molecules are shown by their SMILES.

With `COc1cc2c(cc1-c1cc(C(N)=O)ccn1)-c1c(c(C(=O)N(C)C(C)(C)C)nn1-c1cc(Cl)cc(Cl)c1)CO2` [Compound 113, N-tert-butyl-8-(4-carbamoylpyridin-2-yl)-1-(3,5-dichlorophenyl)-7-methoxy-N-methyl-1,4-dihydrochromeno[4,3-c]pyrazole-3-carboxamide], the values for the EC50 in test [1] and in test [2] were less than 10 nM and 10 to 100 nM, respectively.

In the case of `COc1cc2c(cc1-c1ccn(C)n1)-c1c(c(C(=O)N(C)C(C)(C)C#N)nn1-c1cc(Cl)cc(Cl)c1)CO2` [Compound 132, N-(2-cyanopropan-2-yl)-1-(3,5-dichlorophenyl)-7-methoxy-N-methyl-8-(1-methyl-1H-pyrazol-3-yl)-1,4-dihydrochromeno[4,3-c]pyrazole-3-carboxamide], the EC50 – broadly, the midpoint of the concentration-response curve – in test [1] lay in the range of 10 to 100 nM; in test [2], 101 to 500 nM.

For `[2H]C([2H])([2H])Oc1cc(Cl)cc(-n2nc(C(=O)N(C)C(C)(C)C)c3c2-c2cc(-c4cncc(C(N)=O)c4)c(OC([2H])([2H])[2H])cc2OC3)c1` [Compound 158], the figures for the EC50 in test [1] and in test [2] were less than 10 nM and 10 to 100 nM, respectively.

As for `COc1cc2c(cc1-c1ccnc(C#N)c1)-c1c(c(C(=O)N(C)C(C)(C)C)nn1-c1cc(Cl)cc(Cl)c1)CO2` [Compound 21, N-tert-butyl-8-(2-cyanopyridin-4-yl)-1-(3,5-dichlorophenyl)-7-methoxy-N-methyl-1,4-dihydrochromeno[4,3-c]pyrazole-3-carboxamide], the EC50 in test [1] was less than 10 nM; in test [2], 10 to 100 nM.

As to `COc1cc2c(cc1-c1cccc(C(=O)O)c1)-c1c(c(C(=O)N(C)C(C)(C)C)nn1-c1cc(Cl)cc(Cl)c1)CO2` [Compound 179], the EC50 in test [1] lay in the range of 10 to 100 nM; in test [2], 101 to 500 nM.

With `COc1cc2c(cc1-c1cnn(CC(N)=O)c1)-c1c(c(C(=O)N3CCOCC3(C)C)nn1-c1cc(F)cc(F)c1)CO2` [Compound 99, 2-(4-(1-(3,5-difluorophenyl)-3-(3,3-dimethylmorpholine-4-carbonyl)-7-methoxy-1,4-dihydrochromeno[4,3-c]pyrazol-8-yl)-1H-pyrazol-1-yl)acetamide], the EC50 in test [1] is less than 10 nM; in test [2], 10 to 100 nM.

Take `COc1cc(Cl)cc(-n2nc(C(=O)N(C)C(C)(C)C)c3c2-c2cc(-c4cnn(CCO)c4)c(OC)cc2OC3)c1` [Compound 79, N-tert-butyl-1-(3-chloro-5-methoxyphenyl)-8-(1-(2-hydroxyethyl)-1H-pyrazol-4-yl)-7-methoxy-N-methyl-1,4-dihydrochromeno[4,3-c]pyrazole-3-carboxamide]: the EC50 in test [1] lay within 10 to 100 nM; in test [2] it was 101 to 500 nM.

For the molecule `COc1cc2c(cc1-c1cncc(C(=O)O)c1)-c1c(c(C(=O)N(C)C(C)(C)C#N)nn1-c1cc(F)cc(F)c1)CO2` [Compound 107, 5-(3-((2-cyanopropan-2-yl)(methyl)carbamoyl)-1-(3,5-difluorophenyl)-7-methoxy-1,4-dihydrochromeno[4,3-c]pyrazole-8-yl)nicotinic acid], the EC50 in test [1] is less than 10 nM; in test [2], 101 to 500 nM.

`COc1cc(OC)cc(-n2nc(C(=O)N3CC[S+]([O-])CC3(C)C)c3c2-c2cc(-c4ccn(C)n4)c(OC)cc2OC3)c1` (stereo not shown) [Compound 39, (1-(3,5-dimethoxyphenyl)-7-methoxy-8-(1-methyl-1H-pyrazol-3-yl)-1,4-dihydrochromeno[4,3-c]pyrazol-3-yl)-(S-oxo-3,3-dimethylthiomorpholino)methanone]: the EC50 in test [1] was in the range of 10 to 100 nM; in test [2] it was 101 to 500 nM.

As to `COc1cc2c(cc1C1C=NN=C1C)-c1c(c(C(=O)N(C)C(C)(C)C)nn1-c1cc(Cl)cc(Cl)c1)CO2` (stereo not shown) [Compound 141], the results for the EC50 in test [1] and in test [2] were less than 10 nM and 10 to 100 nM, respectively.

For the molecule `COc1cc2c(cc1-c1cnccc1C(N)=O)-c1c(c(C(=O)N(C)C(C)(C)C)nn1-c1cc(Cl)cc(Cl)c1)CO2` [Compound 153], the EC50 was less than 10 nM in test [1] and 10 to 100 nM in test [2].

`CNC(=O)c1cc(-c2cc3c(cc2OC)OCc2c(C(=O)N(C)C(C)(C)C)nn(-c4cc(F)cc(F)c4)c2-3)cnc1N` [Compound 100, 8-(6-amino-5-(methylcarbamoyl)pyridin-3-yl)-N-tert-butyl-1-(3,5-difluorophenyl)-7-methoxy-N-methyl-1,4-dihydrochromeno[4,3-c]pyrazole-3-carboxamide]: the EC50 in test [1] was less than 10 nM; in test [2] it was 10 to 100 nM.

In the case of `COc1cc2c(cc1-c1cnn(CC(=O)N(C)C)c1)-c1c(c(C(=O)N3CCOCC3(C)C)nn1-c1cc(Cl)cc(Cl)c1)CO2` [Compound 92, 2-(4-(1-(3,5-dichlorophenyl)-3-(3,3-dimethylmorpholine-4-carbonyl)-7-methoxy-1,4-dihydrochromeno[4,3-c]pyrazol-8-yl)-1H-pyrazol-1-yl)-N,N-dimethylacetamide], the EC50 in test [1] is less than 10 nM; in test [2], 10 to 100 nM.

Consider `COc1cc2c(cc1-c1nn(C)cc1Br)-c1c(c(C(=O)N(C)C(C)(C)C)nn1-c1cc(Cl)cc(Cl)c1)CO2` [Compound 148], for which the EC50 is less than 10 nM in test [1] and 10 to 100 nM in test [2].

With `COc1cc(Cl)cc(-n2nc(C(=O)N3CCOCC3(C)C)c3c2-c2cc(-c4cncc(C#N)c4)c(OC)cc2OC3)c1` [Compound 34, 5-(1-(3-chloro-5-methoxyphenyl)-3-(3,3-dimethylmorpholine-4-carbonyl)-7-methoxy-1,4-dihydrochromeno[4,3-c]pyrazol-8-yl)nicotinonitrile], the half-maximal effective concentration (EC50) in test [1] is less than 10 nM; in test [2] it was 10 to 100 nM.

For the molecule `COC(=O)c1cc(-c2cc3c(cc2OC)OCc2c(C(=O)N(C)C(C)(C)C)nn(-c4cc(F)cc(F)c4)c2-3)cnc1N` [Compound 65, methyl 2-amino-5-(3-(tert-butyl(methyl)carbamoyl)-1-(3,5-difluorophenyl)-7-methoxy-1,4-dihydrochromeno[4,3-c]pyrazol-8-yl)nicotinate], the EC50 in test [1] is less than 10 nM; in test [2], 10 to 100 nM.

With `COc1cc2c(cc1-c1cccnc1F)-c1c(c(C(=O)N(C)C(C)(C)C)nn1-c1cc(Cl)cc(Cl)c1)CO2` [Compound 3, N-tert-butyl-1-(3,5-dichlorophenyl)-8-(2-fluoropyridin-3-yl)-7-methoxy-N-methyl-1,4-dihydrochromeno[4,3-c]pyrazole-3-carboxamide], the EC50 is less than 10 nM in test [1] and 10 to 100 nM in test [2].
